Measurements: ChEMBL document CHEMBL1201862, “PubChem BioAssay data set” (2004)
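Each compound was tested at five concentrations against cells in 96-well plates for 48 hours. GI50 = concentration required for 50% inhibition of growth.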 Active and inactive are the calls of the source. No stated cut-off is given here; in the data, active = GI50 up to about 1.1 µM and inactive = higher.

Tests used:
Assay in all cases: growth of human tumour cells (NCI), 48 h
OVCAR-4 = tested on: OVCAR-4
HCT-15 = tested on: HCT-15
UO-31 = tested on: UO-31
DLD-1 = tested on: DLD-1
IGROV-1 = tested on: IGROV-1
RPMI-8226 = tested on: RPMI-8226
RXF 631 = tested on: RXF 631
OVCAR-5 = tested on: OVCAR-5
KM12 = tested on: KM12
ACHN = tested on: ACHN
NCI-H226 = tested on: NCI-H226
UACC-257 = tested on: UACC-257
UACC-62 = tested on: UACC-62
HCT-116 = tested on: HCT-116
LOX IMVI = tested on: LOX IMVI
HOP-18 = tested on: HOP-18
SNB-78 = tested on: SNB-78
TK-10 = tested on: TK-10
NCI-H23 = tested on: NCI-H23
SNB-75 = tested on: SNB-75
KM-20L2 = tested on: KM-20L2
SF-539 = tested on: SF-539
SK-MEL-5 = tested on: SK-MEL-5
HL-60 = tested on: HL-60
SR = tested on: SR
LXFL 529 = tested on: LXFL 529
SK-MEL-28 = tested on: SK-MEL-28
A498 = tested on: A498
K562 = tested on: K562
NCI-H522 = tested on: NCI-H522
RXF 393 = tested on: RXF 393
HOP-62 = tested on: HOP-62
A549 = tested on: A549
DMS-273 = tested on: DMS-273
SK-OV-3 = tested on: SK-OV-3
OVCAR-3 = tested on: OVCAR-3
EKVX = tested on: EKVX
SF-268 = tested on: SF-268
HCC 2998 = tested on: HCC 2998
M14 = tested on: M14
COLO 205 = tested on: COLO 205
HT-29 = tested on: HT-29
SK-MEL-2 = tested on: SK-MEL-2
SN12C = tested on: SN12C
HOP-92 = tested on: HOP-92
CAKI-1 = tested on: CAKI-1
MOLT-4 = tested on: MOLT-4
OVCAR-8 = tested on: OVCAR-8
SNB-19 = tested on: SNB-19
DMS-114 = tested on: DMS-114
Malme-3M = tested on: Malme-3M
M19-MEL = tested on: M19-MEL
U-251 = tested on: U-251
SF-295 = tested on: SF-295
786-0 = tested on: 786-0
CCRF-CEM = tested on: CCRF-CEM
NCI-H460 = tested on: NCI-H460
XF498 = tested on: XF498
SW-620 = tested on: SW-620

SMILES: CC(=O)NC1C(OCc2ccccc2)OC(COC(=O)CCCCCCCCCCNC(=O)CCNc2ccc([N+](=O)[O-])c3[nH]c4ccc(O)cc4c(=O)c23)C(O)C1OC(C)C(=O)N[C@H](C(=O)N[C@H](CCC(=O)O)C(N)=O)C(C)C (stereo partly specified)
- GI50 (OVCAR-4): 35.4 µM (inactive)
- GI50 (HCT-15): > 100 µM
- GI50 (UO-31): 55.2 µM (inactive)
- GI50 (DLD-1): 33.5 µM (inactive)
- GI50 (IGROV-1): > 100 µM (inactive)
- GI50 (RPMI-8226): 19.2 µM (inactive)
- GI50 (RXF 631): 90.6 µM (inactive)
- GI50 (OVCAR-5): 54.3 µM (inactive)
- GI50 (KM12): 63.4 µM (inactive)
- GI50 (ACHN): 60.7 µM (inactive)
- GI50 (NCI-H226): 36.3 µM (inactive)
- GI50 (UACC-257): > 100 µM (inactive)
- GI50 (UACC-62): 85.3 µM (inactive)
- GI50 (HCT-116): 53.7 µM (inactive)
- GI50 (LOX IMVI): 28.8 µM (inactive)
- GI50 (HOP-18): > 100 µM (inactive)
- GI50 (SNB-78): 45.7 µM (inactive)
- GI50 (TK-10): > 100 µM (inactive)
- GI50 (NCI-H23): > 100 µM (inactive)
- GI50 (SNB-75): 17.1 µM (inactive)
- GI50 (KM-20L2): 25.4 µM (inactive)
- GI50 (SF-539): 40.1 µM (inactive)
- GI50 (SK-MEL-5): > 100 µM (inactive)
- GI50 (HL-60): 63.4 µM (inactive)
- GI50 (SR): 20 µM (inactive)
- GI50 (LXFL 529): 81.8 µM (inactive)
- GI50 (SK-MEL-28): > 100 µM (inactive)
- GI50 (A498): 69.8 µM (inactive)
- GI50 (K562): 76.9 µM (inactive)
- GI50 (NCI-H522): 17.4 µM (inactive)
- GI50 (RXF 393): 69.3 µM (inactive)
- GI50 (HOP-62): > 100 µM (inactive)
- GI50 (A549): > 100 µM (inactive)
- GI50 (DMS-273): 40.3 µM (inactive)
- GI50 (SK-OV-3): 84.1 µM (inactive)
- GI50 (OVCAR-3): 84.9 µM (inactive)
- GI50 (EKVX): 96.8 µM (inactive)
- GI50 (SF-268): > 100 µM (inactive)
- GI50 (HCC 2998): 23.8 µM (inactive)
- GI50 (M14): 48.5 µM (inactive)
- GI50 (COLO 205): 32.4 µM (inactive)
- GI50 (HT-29): 56.2 µM (inactive)
- GI50 (SK-MEL-2): 28.8 µM (inactive)
- GI50 (SN12C): 64 µM (inactive)
- GI50 (HOP-92): 28.7 µM (inactive)
- GI50 (CAKI-1): > 100 µM (inactive)
- GI50 (MOLT-4): 43.2 µM (inactive)
- GI50 (OVCAR-8): > 100 µM (inactive)
- GI50 (SNB-19): 46.9 µM (inactive)
- GI50 (DMS-114): 36.2 µM (inactive)
- GI50 (Malme-3M): 22.9 µM (inactive)
- GI50 (M19-MEL): 79.1 µM (inactive)
- GI50 (U-251): 44.4 µM (inactive)
- GI50 (SF-295): > 100 µM (inactive)
- GI50 (786-0): 76 µM (inactive)
- GI50 (CCRF-CEM): 33 µM (inactive)
- GI50 (NCI-H460): > 100 µM (inactive)

SMILES: Fc1cccc(/C=N/C23CC4CC(CC(C4)C2)C3)c1
- GI50 (OVCAR-4): > 100 µM (inactive)
- GI50 (HCT-15): > 100 µM
- GI50 (XF498): > 100 µM (inactive)
- GI50 (UO-31): > 100 µM (inactive)
- GI50 (DLD-1): > 100 µM (inactive)
- GI50 (IGROV-1): > 100 µM (inactive)
- GI50 (RPMI-8226): > 100 µM (inactive)
- GI50 (OVCAR-5): > 100 µM (inactive)
- GI50 (KM12): > 100 µM (inactive)
- GI50 (ACHN): > 100 µM (inactive)
- GI50 (NCI-H226): > 100 µM (inactive)
- GI50 (UACC-257): > 100 µM (inactive)
- GI50 (UACC-62): > 100 µM (inactive)
- GI50 (HCT-116): > 100 µM (inactive)
- GI50 (LOX IMVI): > 100 µM (inactive)
- GI50 (HOP-18): > 100 µM (inactive)
- GI50 (SNB-78): > 100 µM (inactive)
- GI50 (TK-10): > 100 µM (inactive)
- GI50 (NCI-H23): > 100 µM (inactive)
- GI50 (SNB-75): > 100 µM (inactive)
- GI50 (KM-20L2): > 100 µM (inactive)
- GI50 (SF-539): > 100 µM (inactive)
- GI50 (HL-60): > 100 µM (inactive)
- GI50 (LXFL 529): > 100 µM (inactive)
- GI50 (SK-MEL-28): > 100 µM (inactive)
- GI50 (A498): > 100 µM (inactive)
- GI50 (K562): > 100 µM (inactive)
- GI50 (NCI-H522): > 100 µM (inactive)
- GI50 (RXF 393): > 100 µM (inactive)
- GI50 (HOP-62): > 100 µM (inactive)
- GI50 (DMS-273): > 100 µM (inactive)
- GI50 (SK-OV-3): > 100 µM (inactive)
- GI50 (OVCAR-3): > 100 µM (inactive)
- GI50 (EKVX): > 100 µM (inactive)
- GI50 (SF-268): > 100 µM (inactive)
- GI50 (HCC 2998): > 100 µM (inactive)
- GI50 (M14): > 100 µM (inactive)
- GI50 (COLO 205): > 100 µM (inactive)
- GI50 (HT-29): > 100 µM (inactive)
- GI50 (SK-MEL-2): > 100 µM (inactive)
- GI50 (SN12C): > 100 µM (inactive)
- GI50 (HOP-92): > 100 µM (inactive)
- GI50 (CAKI-1): > 100 µM (inactive)
- GI50 (MOLT-4): > 100 µM (inactive)
- GI50 (OVCAR-8): > 100 µM (inactive)
- GI50 (SNB-19): > 100 µM (inactive)
- GI50 (DMS-114): > 100 µM (inactive)
- GI50 (Malme-3M): > 100 µM (inactive)
- GI50 (M19-MEL): > 100 µM (inactive)
- GI50 (U-251): > 100 µM (inactive)
- GI50 (SF-295): > 100 µM (inactive)
- GI50 (786-0): > 100 µM (inactive)
- GI50 (CCRF-CEM): > 100 µM (inactive)
- GI50 (NCI-H460): > 100 µM (inactive)

SMILES: CCN(c1n[n+]2c(-c3ccccc3)csc2s1)c1n[n+]2c(-c3ccccc3)csc2s1
- GI50 (OVCAR-4): 35.4 µM (inactive)
- GI50 (HCT-15): > 100 µM
- GI50 (XF498): 70.6 µM (inactive)
- GI50 (UO-31): > 100 µM (inactive)
- GI50 (DLD-1): > 100 µM (inactive)
- GI50 (IGROV-1): > 100 µM (inactive)
- GI50 (RPMI-8226): 29.6 µM (inactive)
- GI50 (SW-620): 94.6 µM (inactive)
- GI50 (OVCAR-5): > 100 µM (inactive)
- GI50 (KM12): 30.8 µM (inactive)
- GI50 (ACHN): > 100 µM (inactive)
- GI50 (NCI-H226): > 100 µM (inactive)
- GI50 (UACC-257): 36.9 µM (inactive)
- GI50 (UACC-62): > 100 µM (inactive)
- GI50 (HCT-116): 19.3 µM (inactive)
- GI50 (LOX IMVI): 57.9 µM (inactive)
- GI50 (HOP-18): > 100 µM (inactive)
- GI50 (SNB-78): > 100 µM (inactive)
- GI50 (TK-10): > 100 µM (inactive)
- GI50 (NCI-H23): 44.6 µM (inactive)
- GI50 (SNB-75): > 100 µM (inactive)
- GI50 (KM-20L2): 72.8 µM (inactive)
- GI50 (SF-539): > 100 µM (inactive)
- GI50 (SK-MEL-5): 38 µM (inactive)
- GI50 (HL-60): 22.3 µM (inactive)
- GI50 (SR): 20.5 µM (inactive)
- GI50 (LXFL 529): 50.9 µM (inactive)
- GI50 (SK-MEL-28): 79.1 µM (inactive)
- GI50 (K562): 17.5 µM (inactive)
- GI50 (NCI-H522): 35.6 µM (inactive)
- GI50 (RXF 393): 65.9 µM (inactive)
- GI50 (A549): > 100 µM (inactive)
- GI50 (DMS-273): 46.8 µM (inactive)
- GI50 (SK-OV-3): > 100 µM (inactive)
- GI50 (OVCAR-3): 71.8 µM (inactive)
- GI50 (EKVX): > 100 µM (inactive)
- GI50 (SF-268): > 100 µM (inactive)
- GI50 (HCC 2998): > 100 µM (inactive)
- GI50 (M14): 92.5 µM (inactive)
- GI50 (COLO 205): 26.4 µM (inactive)
- GI50 (HT-29): 66.1 µM (inactive)
- GI50 (SK-MEL-2): 44.1 µM (inactive)
- GI50 (SN12C): > 100 µM (inactive)
- GI50 (HOP-92): > 100 µM (inactive)
- GI50 (MOLT-4): 37.5 µM (inactive)
- GI50 (OVCAR-8): 74.3 µM (inactive)
- GI50 (SNB-19): > 100 µM (inactive)
- GI50 (DMS-114): 25.9 µM (inactive)
- GI50 (Malme-3M): 23.3 µM (inactive)
- GI50 (M19-MEL): 33.3 µM (inactive)
- GI50 (U-251): > 100 µM (inactive)
- GI50 (SF-295): > 100 µM (inactive)
- GI50 (786-0): > 100 µM (inactive)
- GI50 (CCRF-CEM): 32.5 µM (inactive)
- GI50 (NCI-H460): 53.1 µM (inactive)
